Experiments:
[1] = Pharmacokinetic experiment, free drug levels in mouse; format: in vivo
Experimental: In vitro plasma and brain protein binding values were generated via the Rapid Equilibrium Dialysis method. The compound of interest was incubated in K2EDTA mouse plasma and rat brain homogenate (homogenized 1:7 (w:v) in 1xPBS) purchased from BioIVT, opposite a buffered compartment of 100mM Potassium phosphate/150mM Sodium chloride, pH 7.4, at 1uM for 4hr and 6hr respectively. […] Free fractions (fu) were then calculated by comparing peak-area ratios of matrix and buffered compartments.
In vivo pharmacokinetic studies were conducted in accordance with Biogen IACUC guidelines in 20-25g C57BL/6 mice purchased from Charles River Labs. A total of 9 mice, split into 3 groups (A,B,C), were dosed subcutaneously at 30mg/kg (3mg/mL; 10mL/kg) in a vehicle of 20% Captisol. […] Mouse brains were harvested for total drug concentration measurement, placed into MP Biomedicals Lysing Matrix D tubes, and stored at -80°C, along with plasma samples to await quantitative analysis.
Total drug concentration in plasma and brain tissue was measured via well-established bioanalytical extraction (protein precipitation) and detection methods (LC-MS/MS). […] Reconstituted extracts were then analyzed via LC-MS/MS (AB Sciex 5500) utilizing a binary HPLC setup (Shimadzu LC-20ADvp) and reverse-phase chromatography gradient (ACE 3 C18-AR). […]

PITSLRE = target: T1, PITSLRE (Mus musculus, UniProt P24788); test: Ex vivo KiNativ ATP/ADP probe competition in mouse cortical brain lysates; format: binding; conditions: DLKTSNLLLSHAGILK; Lys2; ATP probe
T1 construct: from tissue; host or cells: mouse cortical brain lysate
T1 sequence (P24788 1-784): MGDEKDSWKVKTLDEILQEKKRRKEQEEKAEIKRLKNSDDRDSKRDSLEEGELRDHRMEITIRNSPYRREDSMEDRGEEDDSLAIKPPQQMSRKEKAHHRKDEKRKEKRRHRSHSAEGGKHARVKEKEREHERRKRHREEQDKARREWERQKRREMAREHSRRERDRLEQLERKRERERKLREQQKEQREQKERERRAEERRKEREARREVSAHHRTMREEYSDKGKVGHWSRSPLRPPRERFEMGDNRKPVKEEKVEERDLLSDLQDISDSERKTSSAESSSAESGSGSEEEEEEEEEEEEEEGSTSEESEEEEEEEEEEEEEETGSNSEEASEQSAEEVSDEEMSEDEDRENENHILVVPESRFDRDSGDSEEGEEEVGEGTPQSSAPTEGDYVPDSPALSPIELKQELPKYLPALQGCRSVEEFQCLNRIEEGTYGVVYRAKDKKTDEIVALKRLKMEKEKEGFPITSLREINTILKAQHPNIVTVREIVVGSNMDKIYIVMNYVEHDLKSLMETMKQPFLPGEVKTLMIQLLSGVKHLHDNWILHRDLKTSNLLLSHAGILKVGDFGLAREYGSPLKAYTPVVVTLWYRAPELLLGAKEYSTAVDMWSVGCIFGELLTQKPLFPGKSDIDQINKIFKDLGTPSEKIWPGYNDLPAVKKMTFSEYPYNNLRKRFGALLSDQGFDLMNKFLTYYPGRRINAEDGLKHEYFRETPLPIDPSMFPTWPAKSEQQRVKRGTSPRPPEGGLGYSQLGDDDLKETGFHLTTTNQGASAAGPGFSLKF

TAO2 = target: T2, TAO2 (Mus musculus, UniProt Q6ZQ29); test: as above; format: binding
T2 construct: from tissue; host or cells: mouse cortical brain lysate
T2 sequence (Q6ZQ29 1-1240): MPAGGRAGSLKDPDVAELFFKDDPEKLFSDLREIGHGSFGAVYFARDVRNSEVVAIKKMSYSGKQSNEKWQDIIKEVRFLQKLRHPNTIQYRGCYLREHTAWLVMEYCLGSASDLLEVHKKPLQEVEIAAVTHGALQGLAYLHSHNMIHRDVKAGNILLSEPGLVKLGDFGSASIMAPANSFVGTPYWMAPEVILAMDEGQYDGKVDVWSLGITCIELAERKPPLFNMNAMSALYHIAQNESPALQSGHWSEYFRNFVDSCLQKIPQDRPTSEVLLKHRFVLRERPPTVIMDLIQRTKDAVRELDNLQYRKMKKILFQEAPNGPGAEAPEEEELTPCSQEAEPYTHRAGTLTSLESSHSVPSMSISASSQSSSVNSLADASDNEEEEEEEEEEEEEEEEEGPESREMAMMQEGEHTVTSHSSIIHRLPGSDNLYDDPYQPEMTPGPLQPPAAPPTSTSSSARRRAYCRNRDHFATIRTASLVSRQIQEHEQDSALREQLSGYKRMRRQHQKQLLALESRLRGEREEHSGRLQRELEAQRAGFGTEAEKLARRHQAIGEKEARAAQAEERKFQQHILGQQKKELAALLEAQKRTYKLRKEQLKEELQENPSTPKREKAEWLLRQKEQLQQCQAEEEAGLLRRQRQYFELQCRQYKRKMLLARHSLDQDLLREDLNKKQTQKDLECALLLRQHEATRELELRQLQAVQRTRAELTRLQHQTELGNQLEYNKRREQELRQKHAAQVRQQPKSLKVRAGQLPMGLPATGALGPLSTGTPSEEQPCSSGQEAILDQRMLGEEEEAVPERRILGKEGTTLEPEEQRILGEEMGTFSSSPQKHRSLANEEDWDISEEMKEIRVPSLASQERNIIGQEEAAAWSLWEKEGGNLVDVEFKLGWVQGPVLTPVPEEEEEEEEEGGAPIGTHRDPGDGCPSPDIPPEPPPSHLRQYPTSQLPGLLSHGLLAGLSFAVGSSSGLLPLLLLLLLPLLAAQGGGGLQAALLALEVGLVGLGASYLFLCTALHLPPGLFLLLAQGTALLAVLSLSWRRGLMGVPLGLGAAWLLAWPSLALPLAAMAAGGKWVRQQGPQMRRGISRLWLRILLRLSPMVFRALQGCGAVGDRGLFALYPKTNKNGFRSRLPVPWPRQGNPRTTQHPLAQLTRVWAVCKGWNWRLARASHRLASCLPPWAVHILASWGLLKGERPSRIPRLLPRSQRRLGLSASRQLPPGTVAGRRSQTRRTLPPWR

CCC(C)(O)C#Cc1cc2c(ccn2-c2ccnc(N)n2)cn1 (centres unmarked) [BIIB-TTBK1i]
clearance rate [1]: rapid
Percent Inhibition at 1μM (PITSLRE): 63.3%
Percent Inhibition at 1μM (TAO2; DVKAGNILLSEPGLVK, Lys2, ADP probe): 82.6%
Percent Inhibition at 1μM (TAO2; DVKAGNILLSEPGLVK, Lys2, ATP probe): 93.2%
Percent Inhibition at 1μM (TAO2; NSEVVAIKK, Lys1, ADP probe): 86.4%

Source: publication PMC7138307 (PLoS ONE, 2020)
